The source of these data is patent US9746484B2, “Binding partners specific for vitamin D epimers in vitamin D assays” (Siemens Healthcare Diagnostics Inc., priority 2014, dated 2017).

This assay deals with biotinylated monoclonal anti-25OH vitamin D antibody. Nature of the assay: LOCI 25(OH)D immunoassay, 3-epimer cross-reactivity without blocking antibody. It is filed as binding, sheep. As to conditions: no anti-3-epimer antibody; for Avg. Cross-reactivity, No anti-3-epimer VD Ab Added: average of ten patient sera spiked with 100 ng/mL 3-epimer vitamin D3. The protocol:
The 25OH Vitamin D (25(OH)D) immunoassay format employed was a homogeneous competitive chemiluminescent immunoassay based on LOCI® assay technology. The assay was performed on the Siemens Dimension® EXL automated integrated clinical chemistry system (Siemens Healthcare Diagnostics Inc., Deerfield, Ill.). The assay measured the total concentration of 25(OH)D2 and/or 25(OH)D3 in serum and plasma samples. The LOCI® assay reagents included a releasing reagent, two synthetic bead reagents and a biotinylated monoclonal anti-25OH vitamin D antibody reagent. The first bead reagent (designated “Sensibeads”) was coated with streptavidin and contained a photosensitive dye. The second bead reagent (designated “Chemibeads”) was coated with a 25(OH)D3 analog and contained chemiluminescent dye. Sample was incubated with the releasing reagent to release 25(OH)D molecules including 3-epimeric compounds from vitamin D binding proteins. The reaction mixture was then incubated with biotinylated antibody to form a 25(OH)D-biotinylated antibody complex. […] Chemibeads were added to bind excess free biotinylated antibody. Sensibeads were then added to bind to the biotin portion of the biotinylated antibody. Aggregates of Chemibead-analog/antibody-biotin/streptavidin-Sensibeads were formed as a result. Illumination of the reaction mixture with light at 680 nm generates singlet oxygen from Sensibeads, which diffused into the Chemibeads and triggered a chemiluminescent reaction. The resulting chemiluminescent signal was measured at 612 nm and is inversely proportional to the concentration of total 25(OH)D in the sample.
The effect of adding anti-3-epimer-VD antibody 8F10.1 (anti-3-epimer VD Ab) on the 3-epimer cross-reactivity for the assay is shown in Table 1. […] The 3-epimer cross-reactivity was calculated by the difference between 25(OH)D2 or 25(OH)D3 values with and without the spiked 3-epimer compound divided by the amount of added 3-epimer compound.

Several values for one entry are separate records, joined by “and”; a condition that tells them apart may be missing. Equal values may be shown once.

Turning to `C=C1CC[C@@H](O)C/C1=C/C=C1\CCC[C@]2(C)[C@@H]([C@H](C)CCCC(C)(C)O)CC[C@@H]12` [3-epimer D3, 3-epi-25-hydroxyvitamin D3], the “Avg. Cross-reactivity, No anti-3-epimer VD Ab Added” value turned out to be 13.7%. Besides, under “listed as 3-epimer vitamin D3 compound”, the “Avg. Cross-reactivity, No anti-3-epimer VD Ab Added” value is listed as 13.7%. Moreover, under “individual patient sera (Sample ID 1-10) spiked with 100 ng/mL 3-epimer vitamin D3”, the “3-epimer Cross-Reactivity, No anti-3-epimer VD Ab Added” value was 17.9% (2×) and 11.9% and 12.6% and 16.1% and 10.2% and 9.1% and 10.5% and 15.3% and 15.5%.
